Data reported in patent US7863334B2, “Guanylhydrazone compounds, compositions, methods of making and using” (Cytokine PharmaSciences, Inc., priority 2004, dated 2011).

What was measured:
[1] = test system: nitric oxide release from LPS-induced RAW 264.7 cells; test: Inhibition of LPS-induced nitric oxide (nitrite) release from RAW 264.7 cells (Griess reagent); assay type: cell-based; conditions: RAW 264.7 murine macrophage cells, 1 hour pretreatment, 100 ng/mL LPS, 24 hours
Procedure: (§1) The present inventors measured the ability of eight test articles to inhibit LPS-induced nitric oxide and TNFα secretion from murine macrophage cells.
(§2) The studies were conducted in RAW 264.7 cultures.
(§3) RAW 264.7 murine macrophage cells (ATCC, TIB-71) were maintained at 5% CO2, 37° C. in RPMI media (Fisher 15-040-CV, 1 mg/L glutathione) with 10% fetal bovine serum (fbs, Fisher, lot 05069F) plus 2 mM L-glutamine and penicillin/streptomycin. The cells were subcultured every two to three days. Cells were plated in tissue culture treated 96 well plates at a density of 1×10^5 cells/well and incubated at 5% CO2, 37° C. for at least one hour prior to initiation of the assay. The cells were washed with RPMI with 10% fbs prior to the initiation of the assay.
The compounds were weighed, dissolved in DMSO for stock solutions of 10 mg/mL and serially diluted in RPMI. The plated RAW 264.7 cells were pretreated in duplicate with the test compounds, control (CNI-1493) or vehicle for 1 hour at final concentrations of 0, 0.1, 1.0, 10, and 100 μg/mL. […]
To 50 μL of cell-free media, 50 μL of Griess Reagent (1 part 0.1% naphthylethylenediamine diHCl, 1 part 1.32% sulfanilimide in 60% acetic acid) was added and incubated for no more than 5 minutes at ambient temperature. The samples were read on a microtiter plate reader at 540 nm and compared to a 0.1-5 nmol nitrite standard curve.

[2] = test system: TNFα release from LPS-induced RAW 264.7 cells; test: Inhibition of LPS-induced TNFα release from RAW 264.7 cells (ELISA); assay type: cell-based; conditions: RAW 264.7 murine macrophage cells, 1 hour pretreatment, 100 ng/mL LPS, 24 hours
Procedure: as §1, §2, §3
The compounds were weighed, dissolved in DMSO for stock solutions of 10 mg/mL and serially diluted in RPMI. The plated RAW 264.7 cells were pretreated in duplicate with the test compounds, control (CNI-1493) or vehicle for 1 hour at final concentrations of 0, 0.1, 1.0, 10, and 100 μg/mL. The cells were stimulated with 100 ng/mL LPS (E. coli 0111:B4) and incubated at 5% CO2, 37° C. for 24 hours. The media was collected and stored at −20° C.

C/C(=N\N=C(N)N)c1cc(NC(=O)CCCCCCCCC(=O)Nc2cc(/C(C)=N/N=C(N)N)cc(/C(C)=N/N=C(N)N)c2)cc(/C(C)=N/N=C(N)N)c1.Cl.Cl.Cl.Cl [CNI-1493]
IC50 for inhibition of nitric oxide release [1]: approximately 5.5 μg/mL | IC50 for inhibition of release of TNFα [2]: approximately 8 μg/mL
